Data: PubChem BioAssay (NCI)
Values joined by “and” are separate entries in the source; they are usually repeats but may differ in a detail not shown here. Equal entries are not always repeated.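 How tested: cells in 96-well plates exposed to compound for 48 hours at five concentrations. TGI marks complete inhibition of growth.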

Tests used:
Test in all cases: NCI anticancer screen, dose series, 48 h
[1] = test system: DU-145 prostate
[2] = test system: UACC-62 melanoma
[3] = test system: MCF7 breast
[4] = test system: HCT-116 colon
[5] = test system: T-47D breast
[6] = test system: HL-60(TB) leukemia
[7] = test system: MALME-3M melanoma
[8] = test system: NCI-H522 lung
[9] = test system: PC-3 prostate
[10] = test system: UACC-257 melanoma
[11] = test system: SNB-75 CNS
[12] = test system: SW-620 colon
[13] = test system: K-562 leukemia
[14] = test system: MOLT-4 leukemia
[15] = test system: A498 renal
[16] = test system: M14 melanoma
[17] = test system: U251 CNS
[18] = test system: LOX IMVI melanoma

Row | SMILES | TGI [1] [µM] | TGI [2] [µM] | TGI [3] | TGI [4] [µM] | TGI [5] | TGI [6] [µM] | TGI [7] [µM] | TGI [8] | TGI [9] | TGI [10] [µM] | TGI [11] | TGI [12] [µM] | TGI [13] [µM] | TGI [14] | TGI [15] | TGI [16] | TGI [17] | TGI [18]
1 | CCOC(=O)/C=C1\C[C@H](NC(=O)OCc2ccccc2)C(=O)N1CC(=O)OCC | > 100 | > 100 | > 100 µM | > 100 | > 100 µM | > 100 | > 100 | > 100 µM | > 100 µM | > 100 | > 100 µM | > 100 | > 100 | > 100 µM | > 100 µM | > 100 µM | > 100 µM | 
2 | CC(C)(C)c1cc2c(O)c(c1)COCc1cc(C(C)(C)C)cc(c1O)COCc1cc(C(C)(C)C)cc(c1O)COC2 | > 100 | > 100 | > 100 µM | > 100 | > 100 µM | > 100 |  |  | > 100 µM | > 100 | > 100 µM | > 100 | > 100 | > 100 µM | > 100 µM | > 100 µM | > 100 µM | > 100 µM
3 | Cc1ccc(C)c(C(=N)c2ccccc2Cc2ccccc2)c1 | 48.1 | 33.4 | 32.4 µM | 41.5 | 80.6 µM | 43.6 | 28 | 30 µM | > 100 µM | 73.1 |  | > 100 | 58.7 | 38.2 µM | 53.9 µM | > 100 µM | 30.4 µM | 31.7 µM
4 | CCOC(=O)C(C(=O)OCC)C(NC(=O)Nc1cc(C(F)(F)F)ccc1OC)(C(F)(F)F)C(F)(F)F | > 100 | 88.8 | > 100 µM | > 100 | > 100 µM | 48.9 | 51.2 | 55.9 µM | > 100 µM | 94.1 |  | > 100 | 74.5 | 68.6 µM | 31.9 µM | 45 µM | 59.1 µM | > 100 µM
5 | Fc1ccc(C(OCCN2CCC3CCC(C2)N3C/C=C/c2cccnc2)c2ccc(F)cc2)cc1 (stereo unspecified) | 33.1 | 25 | 25.5 µM | 19 | 31 µM |  | 15 | 27 µM | 21.8 µM | 12.3 | 27.9 µM | 23.1 |  | 14.9 µM | 28 µM | 7.09 µM | 24.4 µM | 27 µM
6 | CCN(CC)c1ccc2cc(-c3csc(-c4ccc(N(C)C)cc4)n3)c(=O)oc2c1 | > 100 | > 100 | > 100 µM | > 100 | > 100 µM | > 100 | > 100 | > 100 µM | > 100 µM | > 100 | > 100 µM | > 100 | > 100 | > 100 µM |  | > 100 µM | > 100 µM | > 100 µM
7 | OCC(O)C(O)C(C=NNc1ncnc2ccc(Br)cc12)=NNc1ncnc2ccc(Br)cc12 (stereo unspecified) | 9.82 |  | 35 µM and > 100 µM | > 100 | 16.1 µM and > 100 µM | > 100 |  | 11.3 µM and 35.9 µM | 77.4 µM and > 100 µM | > 100 | 17.6 µM and > 100 µM | > 100 | > 100 | 12.1 µM and > 100 µM | 18 µM and 75.2 µM | 4.91 µM and 17.4 µM | 67.3 µM and > 100 µM | 14.9 µM and > 100 µM
8 | N=c1oc2ccc(Cl)cc2cc1C(=O)NC1CCCCC1 | > 100 | > 100 | > 100 µM | > 100 | > 100 µM | > 100 |  |  | > 100 µM | > 100 | > 100 µM | > 100 | > 100 | > 100 µM | > 100 µM | > 100 µM | > 100 µM | > 100 µM
9 | CC(C)(C)OC(=O)CC(NC(=O)OC(C)(C)C)C(=O)Oc1ccc([N+](=O)[O-])cc1 (stereo unspecified) | > 100 | 65.9 | > 100 µM | > 100 | > 100 µM |  | > 100 | > 100 µM | > 100 µM | > 100 | > 100 µM | > 100 | > 100 | > 100 µM | > 100 µM | > 100 µM | > 100 µM | > 100 µM
10 | CC(=O)NC1=CC(=O)C=C(Cl)C1=O | > 100 | > 100 | 82.4 µM | > 100 | > 100 µM | 45.7 | 66 | 84 µM | > 100 µM | > 100 | > 100 µM | 37 | 93.6 | 50.9 µM | > 100 µM | > 100 µM | > 100 µM | 
